The results in this text go back to ChEMBL document CHEMBL1147006, “Synthesis, characterization and antiamoebic activity of 1-(thiazolo[4,5-b]quinoxaline-2-yl)-3-phenyl-2-pyrazoline derivatives” (Bioorg Med Chem Lett, 2006).

pIC50: −log10 of the molar value.

What is called pIC50 is the negative decadic logarithm of the IC50, by convention in mol/L. A low value points to a large IC50.

The test system of this test is Entamoeba histolytica. Description: Antiamoebic activity against Entamoeba histolytica HM-1:IMSS. The test is classed as functional, organism-based.
Molecule `CC1CN(c2nc3nc4ccccc4nc3s2)N=C1c1ccccc1` (stereo unspecified) had a pIC50 of 5.63.
Molecule `CC1CN(C(N)=S)N=C1c1ccccc1` (stereo unspecified) showed a pIC50 of 4.99.
Molecule `c1ccc(C2=NN(c3nc4nc5ccccc5nc4s3)CC2)cc1` gave a negative logarithm of the IC50 (pIC50) of 5.17. This pIC50 and that of the molecule before are within 0.2 log units of each other.
Molecule `Cc1ncc([N+](=O)[O-])n1CCO` [METRONIDAZOLE] gave a pIC50 of 5.77.
For `CC1CN(c2nc3nc4ccccc4nc3s2)N=C1c1cccc(Cl)c1` (stereo unspecified) the value was 6.14; for `Brc1cccc(C2=NN(c3nc4nc5ccccc5nc4s3)CC2)c1`, 5.30; for `NC(=S)N1CCC(c2ccccc2)=N1`, 4.76.
For the molecule `NC(=S)N1CCC(c2cccc(Br)c2)=N1`, the negative logarithm of the IC50 (pIC50) was 4.88.
In the case of `Clc1cccc(C2=NN(c3nc4nc5ccccc5nc4s3)CC2)c1` it was 5.96; in that of `NC(=S)N1CCC(c2cccc(Cl)c2)=N1`, 5.06; in that of `CC1CN(c2nc3nc4ccccc4nc3s2)N=C1c1cccc(Br)c1` (stereo unspecified), 5.84.
